# US10857201B2, “NNIF and nNIF-related peptides and related methods” (UNIVERSITY OF UTAH RESEARCH FOUNDATION, priority 2016, dated 2020)
# Entries after “also recorded” stand apart in the source; their conditions may differ.
# Key:
# [1] = tested on: neutrophil extracellular trap (NET) formation; test: In vitro NET formation by stimulated human PMNs (live cell imaging, NET-associated histone H3 release); type: cell-based; settings: for PMA-stimulated NET deployment: PMA 20 nM, 1 hour preincubation; for PMA-stimulated NET deployment / NET formation triggered by heme: peptides 1 nM; for NET formation triggered by LPS: adult PMNs preincubated with agent, LPS 100 ng/mL, 1 hour; for NET formation triggered by heme: heme 1 μM; for relative inhibition of NETosis (order of potency): initial comparison of NRPs
# Procedure: Qualitative assessment of NET formation was performed as previously reported (see Yost C C, et al., Blood. 2009; 113 (25):6419-27 and McInturff A M, et al., Blood. 2012; 120 (15):3118-25). Briefly, primary PMNs isolated from preterm infants, healthy term infants, and healthy adults (2×10^6 cells/mL) were incubated with control buffer or stimulated with indicated agonists or bacteria for 1 hour at 37° C. in 5% CO2/95% air on glass coverslips coated with poly-L-lysine. For selected experiments, primary PMNs were pre-incubated with autologous plasma, cord blood plasma, nNIF (0.2-70 nM), CRISPP (0.2-70 nM), nNIF-SCR (1 nM), or CRISPP-SCR (1 nM) for one hour prior to stimulation. After pre-incubation and/or stimulation, PMNs were gently washed with PBS and incubated with a mixture of cell permeable (SYTO® Green, MOLECULAR PROBES®) and impermeable (SYTOX® Orange, MOLECULAR PROBES®) DNA fluorescent dyes. Confocal microscopy was accomplished using a FV1000 IX81 confocal microscope and FLUOVIEW™ software (OLYMPUS™). Both 20× and 60× objectives were used. Z-series images were obtained at a step size of 1 μm over a range of 20 μm for each field. FLUOVIEW™ and ADOBE™ PHOTOSHOP™ CS2 software was used for image processing.
# Using BSL 2 safety protocols, primary PMNs isolated from healthy adults (2×10^6 cells/mL) were incubated with mock infection buffer or live dengue virus (M010.05) as for live cell imaging. After a 1-hour incubation, the infected PMNs were fixed with 2% p-FA for 10 minutes prior to incubation with fluorescently-labeled, cell-permeable and cell-impermeable DNA dyes, and imaged as for live cell imaging using confocal microscopy.
# NET-associated histone H3 content was determined as previously described (see McInturff A M, et al., Blood. 2012; 120 (15):3118-25). After live cell imaging of control and stimulated primary PMNs (2×10^6/mL; various agonists), the cells were incubated with PBS containing DNase (40 U/mL) for 15 minutes at room temperature to break down and release NETs formed in response to stimulation. The supernatant was gently removed and centrifuged at 420×g for 5 minutes. The cell-free supernatant was then mixed 3:1 with 4× Laemmli buffer prior to western blotting. A polyclonal primary antibody against human histone H3 protein (CELL SIGNALING®) and infrared-conjugated secondary antibodies (LI-COR®) were used. Imaging and densitometry were performed on the ODYSSEY® infrared imaging system)(LI-COR®). This assay was previously validated as a surrogate for NET formation under in vitro conditions (see McInturff A M, et al., Blood. 2012; 120 (15):3118-25) as employed in the present studies.
# Without being bound by any specific theory, it was hypothesized that placentally expressed HTRA1, a serine protease, regulates the formation of NET-inhibitory peptides through cleavage of AAT. To test this hypothesis, term and preterm placenta were assessed for HTRA1 expression via western blotting. HTRA1 and AAT plasma expression from term and preterm infants and adults were determined by ELISA. Bioactive (0.5 μg) or placental eluted HTRA1 was incubated with AAT (8 μM) for 18 hours at 37° C. Carboxy-terminus fragments of AAT were detected using western blotting and mass spectrometry. The reaction products were incubated for 1 hour with PMNs isolated from healthy adults prior to LPS stimulation (100 ng/mL) and assessed for NET formation using live cell imaging. Reactive oxygen species were assessed using flow cytometry, chemotaxis using a modified Boyden chamber assay, and bacterial killing using E. coli.
# recombinant PAD4 = molecular target: T1, recombinant PAD4 (Homo sapiens, UniProt Q9UM07); test: Cell-free PAD4 deimination assay; type: biochemical; settings: for PAD4 activity: cell-free, synthetic substrate, nNIF 1 nM, Cl-amidine 10 μM; for order of potency of inhibition of PAD4: initial comparison of NRPs
# T1 construct: purchased CAYMAN
# T1 sequence (Q9UM07 whole entry): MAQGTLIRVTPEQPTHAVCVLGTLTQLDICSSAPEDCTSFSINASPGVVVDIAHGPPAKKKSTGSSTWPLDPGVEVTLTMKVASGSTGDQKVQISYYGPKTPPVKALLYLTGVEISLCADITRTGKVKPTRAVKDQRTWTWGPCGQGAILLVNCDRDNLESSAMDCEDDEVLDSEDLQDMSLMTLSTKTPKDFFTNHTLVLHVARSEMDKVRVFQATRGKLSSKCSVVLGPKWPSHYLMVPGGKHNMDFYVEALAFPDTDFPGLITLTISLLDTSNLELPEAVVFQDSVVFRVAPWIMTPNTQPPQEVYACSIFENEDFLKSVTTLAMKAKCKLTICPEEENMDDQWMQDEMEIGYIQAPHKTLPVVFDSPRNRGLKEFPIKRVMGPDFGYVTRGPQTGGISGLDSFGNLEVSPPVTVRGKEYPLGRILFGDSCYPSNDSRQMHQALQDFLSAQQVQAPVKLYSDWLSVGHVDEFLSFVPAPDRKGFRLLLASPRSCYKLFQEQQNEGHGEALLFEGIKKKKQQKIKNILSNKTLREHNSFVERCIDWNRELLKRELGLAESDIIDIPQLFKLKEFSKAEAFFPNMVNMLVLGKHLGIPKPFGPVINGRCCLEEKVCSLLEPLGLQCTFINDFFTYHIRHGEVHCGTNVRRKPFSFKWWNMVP
# Procedure: One way ANOVA with Tukey's post hoc testing, ***P<0.001.
# nNIF inhibition of PAD4 activity was determined using a PAD4 inhibitor screening assay kit (CAYMAN™). Briefly, nNIF (1 nM) was incubated with recombinant PAD4 and PAD4 enzyme substrate (2 mM) in PAD4 assay reagent for 30 minutes at 37° C. […] The reaction was stopped with PAD4 Stop Solution and detected using an included ammonia detector assay. Ammonia detector fluorescence was measured at 470 nm following excitation at 405 nm on a SPECTRAMAX™ M5 fluorescence plate reader (MOLECULAR DEVICES™).
# [2] = tested on: LPS-induced peritoneal NET formation; test: Mouse model of LPS-induced peritonitis (in vivo NET formation); settings: C57BL/6 mice, i.p. LPS
# Procedure: C57/BL6 or Swiss-Webster mice were pretreated in blinded fashion with CRISPP (10 mg/kg), nNIF (10 mg/kg), or CRISPP-SCR (10 mg/kg) by i.p. injection 1 hour prior to infection (E. coli, 4.5×10^7 cfu/mouse, i.p.) or inoculation (LPS, 25 mg/kg, i.p.) (SIGMA-ALDRICH®). Control mice were injected with saline alone. The mice were sacrificed in a CO2 chamber 3 hours post-infection/inoculation, and the peritoneal fluid and membrane samples were harvested. Briefly, the abdomen was disinfected and opened in the midline without injuring the muscle. The peritoneal cavity was lavaged with sterile saline solution (1 mL) and analyzed for in vivo NET formation, bacteriology, and leukocyte accumulation. NETs in the peritoneal fluid were qualitatively and quantitatively analyzed using live cell imaging with confocal microscopy and NET-associated histone H3 release assays. NETs on the serosal surface of the peritoneal membrane were assessed quantitatively using live cell imaging, followed by standardized grid analysis of five randomly selected high-power visual fields per tissue sample (IMAGEJ™ software, NIH). Peritoneal bacterial colony forming unit (cfu) counts were quantified by permeabilizing all recovered leukocytes with 0.1% Triton X-100 for 10 minutes and performing serial dilutions and bacterial cultures on 5% sheep blood agar plates (HARDY DIAGNOSTICS™). After a 24-hour incubation, bacterial counts were determined. Total leukocyte counts in the peritoneal lavage were determined in Neubauer chambers using an optical microscope after dilution in Turk's solution (2% acetic acid). Differential leukocyte analysis was performed using a 60× oil immersion objective to assess morphology of cyto-centrifuged cells stained with May-Gruenwald-Giemsa dye. All mice were included in the final analysis.
Substance,PMA-stimulated NET deployment [1],"NET formation induced by live Staphylococcus aureus ([1]; S. aureus MOI 100:1, peptide 1 nM)",NET formation triggered by LPS [1],"NET generation stimulated by dengue virus ([1]; dengue virus MOI 0.05:1, peptide 1 nM)",NET formation triggered by heme [1],relative inhibition of NETosis (order of potency) [1],PAD4 activity (recombinant PAD4),order of potency of inhibition of PAD4 (recombinant PAD4),LPS-induced peritoneal NET formation [2]
"M_IPPEVKFNKPFVFLMIDQNTKVPLFMGK [CRISPP, consensus peptide based on factors present in the blood of patients with cancer]",blocked,inhibited,inhibits NET formation; also recorded: inhibited LPS-stimulated NET deployment; also recorded: inhibit NET formation at nanomolar concentrations,inhibited,inhibit,nNIF ≈CRISPP>A1ATm^358,inhibited,nNIF ≈CRISPP>A1ATm^358,inhibited
KFNKPFVFLMIEQNTKSPLFMGKVVNPTQ (listed as Homo sapiens) [nNIF],blocked,–,potent NET-inhibitory activity; also recorded: inhibits NET formation; also recorded: inhibited LPS-stimulated NET deployment; also recorded: inhibit NET formation at nanomolar concentrations,–,inhibit,nNIF ≈CRISPP>A1ATm^358,blocked its activity,nNIF ≈CRISPP>A1ATm^358,inhibited
